Patent publication US5618685A, “Activation of herpes simplex virus protease by kosmotropes” (priority 1995, dated 1997)
Structures can show the parent of a compound that is named as a salt. Where two headings read alike, the source gives them in different places.

Legend:
[1] = target: T1, HSV-1 protease (Human herpesvirus 1, UniProt P10210); test: biochemical
Procedure: For experiments examining anion effects, buffer solutions were prepared with the sodium salt of the anion and the pH was adjusted to 7.5 with concentrated HCl where necessary (i.e., citrate, glutamate, malate). An exception was phosphate, where NaH2 PO4 was prepared in the buffer and the pH adjusted upward with NaOH.
Enzyme activity was measured with the peptide substrates […]-amide (SEQ.ID.NO.:2) and […]-amide (SEQ.ID.NO.:1), using HPLC for the separation of products from substrates as described in Darke et al., 1994, supra. The C-terminal cleavage products of enzymatic hydrolysis are SEKFKMW-amide (SEQ.ID.NO.:3) and […]-amide (SEQ.ID.NO.:4) respectively. Quantitation of the C-terminal cleavage product, containing tryptophan, in the HPLC effluent was with a Hewlett-Packard model 1046A fluorescence detector (excitation at 280 nm, emission at 350 nm). […] Reactions were performed at 37° C. in a pH 7.5 buffer containing 52 mM 4-morpholinoethanesulfonic acid (MES), 52 mM 3-(N-tris(hydroxymethyl)methylamino)-2-hyroxy-propanesulfonic acid (TAPSO) and 100 mM diethanolamine, 1 mM EDTA, 1 mM dithiothreitol, 0.1% bovine serum albumin, and the various additives listed in the Tables. Reactions were initiated by the addition of a stock HSV-1 protease solution (0.625 mg/ml) in the above buffer with no additives to a final concentration of 0.025 mg/ml (0.94 μM) and quenched with the addition of 5% H3 PO4. Activity assays comparing various anion and cosolvents effects were conducted with a substrate concentration of 53 μM. Activity in Tables 1 and 2 is expressed as relative to the case where no additive was present in the reaction mixture.

[2] = target: T1, HSV-1 protease; test: Susceptibility of HSV-1 protease to trypsin proteolysis (SDS-PAGE); type: biochemical, Herpes Simplex Virus type 1; set-up: Autoprocessing of the precursor to the mature 246 amino acid form of the enzyme; made in house; host or cells: E. coli; details: trypsin 0.1 mg/ml, 37° C., 60 min; 0.8M citrate
Procedure: HSV-1 protease was incubated for 60 minutes at 37° C. with or without trypsin, either with or without 0.8M sodium citrate present, as described in Example 3. Samples were analyzed with SDS-PAGE (16% gels) and stained with Coomassie brilliant blue. Lanes 1 and 2, no trypsin added; lanes 3 and 4, trypsin added at 0.1 mg/ml. Lanes 1 and 3, no citrate added; lanes 2 and 4, sodium citrate present at 0.8M during incubation. The arrow on the right indicates the position of 27 kDa, undigested HSV-1 protease. Molecular weight markers are in the leftmost lane, with the corresponding molecular weights marked in kDa.
In accordance with this invention, the sensitivity of native HSV-1 protease to trypsin was examined as a function of kosmotrope concentration. Following treatment of the enzyme with trypsin for 60 minutes, SDS-PAGE was performed to qualitatively examine the extent of trypsin digestion of the HSV-1 protease.
Trypsin treatment of the HSV-1 protease (0.15 mg/ml) was performed with 0.1 mg/ml trypsin at 37° C. for 60 min. Trypsin activity s measurements with the fluorogenic substrate BOC-Val-Pro-Arg-7-amino-4-methylcoumarin were performed at 37° C. After trypsin treatment, samples were boiled with SDS gel sample buffer and small volumes of sodium citrate were added to some samples to equalize the extent of band spreading on the gel. […]

[3] = anion (Na+ salt) at ionic strength = 0.8, 37° C., pH 7.5, substrate 53 μM, relative to no additive
[4] = pH 7.5, read-out: Relative activity of HSV-1 protease
[5] = anion (Na+ salt) 0.2M, 37° C., pH 7.5, substrate 53 μM, relative to no additive, 200000 µM
[6] = anion (Na+ salt) 0.8M, 37° C., pH 7.5, substrate 53 μM, relative to no additive, 800000 µM

T1 sequence (P10210 1-247): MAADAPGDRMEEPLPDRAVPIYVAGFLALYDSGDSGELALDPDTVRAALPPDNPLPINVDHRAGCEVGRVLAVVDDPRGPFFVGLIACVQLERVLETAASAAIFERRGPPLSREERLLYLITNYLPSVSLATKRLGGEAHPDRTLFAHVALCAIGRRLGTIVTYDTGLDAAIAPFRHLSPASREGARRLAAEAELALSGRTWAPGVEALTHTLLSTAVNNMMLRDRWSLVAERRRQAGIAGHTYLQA

O=C(O)CC(C(=O)O)C(O)C(=O)O (centres unmarked) [Isocitrate]
Relative activity of HSV-1 protease [1, 3]: 3.53
activity at 200000 µM [1, 4]: 772%

OC[C@@H](O)[C@@H](O)[C@H](O)[C@@H](O)CO [Sorbitol]
effect of co-solvent on HSV-1 protease activity (in words) [1]: Activation was observed, albeit to a lesser extent

O=C(O)CC(O)(CC(=O)O)C(=O)O [Citrate, sodium citrate]
susceptibility of HSV-1 protease to trypsin digestion (in words) [2]: loss in susceptibility of HSV-1 protease to trypsin digestion
effect of anion/salt on HSV-1 protease activity (in words) [1]: strong activation
kcat /KM [1]: 4500 M⁻¹ s⁻¹
amount of peptide cleavage product (SEKFKMW-amide) that accumulated in 60 minutes ([1]; 0.8M sodium citrate in reaction mixture, HSV-1 protease 40 nM): 100 pmol
amount of peptide cleavage product that accumulated in 1 minute ([1]; 0.8M sodium citrate in reaction mixture, enzyme 0.93 μM): 100 pmol
Relative activity of HSV-1 protease [1, 3]: 4.16
fold induction at 800000 µM ([1]; pH 7.5, read-out: enhancement of the observed hydrolytic rate (increase of activity)): 202
fold induction at 800000 µM ([1]; pH 7.5, read-out: increase of the protease activity (catalytic efficiency)): 860

[Br-].[K+] [Br^-, bromide]
Relative activity of HSV-1 protease ([1]; pH 7.5, 200000 µM): 0.23
Relative activity of HSV-1 protease ([1]; pH 7.5, 800000 µM): 0.07

CN(C)C=O [Dimethyl formamide]
effect of co-solvent on HSV-1 protease activity (in words) [1]: strongly inactivating

OCCO [Ethylene glycol]
activity at 2 % [1, 4]: 63%
activity at 5 % [1, 4]: 67%
activity at 10 % [1, 4]: 45%

Cl [Cl^-, Chloride]
effect of anion/salt on HSV-1 protease activity (in words) [1]: little effect
Relative activity of HSV-1 protease [1, 5]: 0.96
Relative activity of HSV-1 protease [1, 6]: 1.08

N[C@H](CCC(=O)O)C(=O)O [D-glutamate]
activity at 200000 µM [1, 4]: 290%

CCO [Ethanol]
effect of co-solvent on HSV-1 protease activity (in words) [1]: strongly inactivating
activity at 2 % [1, 4]: 27%
activity at 5 % [1, 4]: 10%
activity at 10 % [1, 4]: 0%

O=P(O)(O)OP(=O)(O)O [HP2 O7^3-]
Relative activity of HSV-1 protease [1, 5]: 7.32

N[C@@H](CCC(=O)O)C(=O)O [L-glutamate]
activity at 200000 µM [1, 4]: 245%

O=P(O)(O)O [HPO4^2- /PO4^3-, sodium phosphate]
effect of anion/salt on HSV-1 protease activity (in words) [1]: strong activation
kcat /KM ([1]; 0.8M salt present): 2200 M⁻¹ s⁻¹
Relative activity of HSV-1 protease [1, 5]: 5.68

F [F^-]
effect of anion/salt on HSV-1 protease activity (in words) [1]: some activation
Relative activity of HSV-1 protease [1, 5]: 6.15

I [I^-, iodide]
effect of anion/salt on HSV-1 protease activity (in words) [1]: inhibition
Relative activity of HSV-1 protease [1, 5]: 0.07
Relative activity of HSV-1 protease [1, 6]: 0.00
effect of anion/salt on HSV-1 protease activity (in words) ([1]; listed as iodide): inhibitory

[O-][Cl+3]([O-])([O-])O [ClO4^-, perchlorate]
effect of anion/salt on HSV-1 protease activity (in words) [1]: inhibitory
Relative activity of HSV-1 protease [1, 5]: 0.06
Relative activity of HSV-1 protease [1, 6]: 0.00

O=C(O)C[C@@H](O)C(=O)O [D-malate]
activity at 200000 µM [1, 4]: 409%

O=S(=O)(O)O [SO4^2-, sulfate]
effect of anion/salt on HSV-1 protease activity (in words) [1]: strong activation
Relative activity of HSV-1 protease [1, 5]: 4.70

O=C(O)CCC(=O)O [Succinate]
Relative activity of HSV-1 protease ([1]; pH 7.5): 6.03
activity at 200000 µM [1, 4]: 397%

CC(=O)O [CH3 COO^-]
activity at 200000 µM [1, 4]: 171%
activity at 800000 µM [1, 4]: 703%

O=C(O)/C=C(/CC(=O)O)C(=O)O [cis-Aconitrate]
Relative activity of HSV-1 protease [1, 3]: 2.40
activity at 200000 µM [1, 4]: 506%

N.N.O=S(=O)(O)O [(NH4)2 SO4]
effect of anion/salt on HSV-1 protease activity (in words) [1]: slightly less activating

O=C(O)C[C@H](O)C(=O)O [L-malate]
activity at 200000 µM [1, 4]: 404%

OCC(O)CO [Glycerol]
effect of co-solvent on HSV-1 protease activity (in words) [1]: Activation was observed, albeit to a lesser extent

C[S+](C)[O-] [Dimethyl sulfoxide]
inhibition at 2 % ([1]; read-out: reduction of HSV protease activity, 2% DMSO with 0.8M sodium citrate present): 8%
inhibition at 2 % ([1]; read-out: reduction of HSV protease activity, 2% DMSO, no kosmotropic anion): 37%
